Assays:
Type in all cases: functional
Spodoptera litura [1] = assay: Larvicidal activity against third-instar larvae of Spodoptera litura infested in soybean seedling assessed as mortality at 2 ppm sprayed 6 days prior to infestation measured after 5 days
Plutella xylostella [2] = assay: Larvicidal activity against second-instar larvae of Plutella xylostella (diamondback moth) infested raddish seedling assessed as mortality at 50 ppm sprayed 2 hr prior to infestation measured after 4 days
Adoxophyes orana [3] = assay: Larvicidal activity against second-instar larvae of Adoxophyes orana infested soybean seedling assessed as mortality at 20 ppm measured after 7 days; conditions: 168 h
Spodoptera litura [4] = assay: Larvicidal activity against third-instar larvae of Spodoptera litura infested in soybean seedling assessed as mortality at 2 ppm sprayed 1 day prior to infestation measured after 5 days
Plutella xylostella [5] = assay: Larvicidal activity against second-instar larvae of Plutella xylostella (diamondback moth) infested raddish seedling assessed as mortality at 3.3 ppm sprayed 2 hr prior to infestation measured after 4 days
Adoxophyes orana [6] = assay: Larvicidal activity against second-instar larvae of Adoxophyes orana infested soybean seedling assessed as mortality at 5 ppm measured after 7 days; conditions: 168 h

Row | Compound | mortality at 2 ppm (Spodoptera litura [1]) | mortality at 50 ppm (Plutella xylostella [2]) | mortality at 20 ppm (Adoxophyes orana [3]) | mortality at 2 ppm (Spodoptera litura [4]) | mortality at 3.3 ppm (Plutella xylostella [5]) | mortality at 5 ppm (Adoxophyes orana [6])
1 | O=C(NC(=O)c1c(F)cccc1F)Nc1ccc(Cl)cc1 [DIFLUBENZURON] | 15% | 20% | 20% | 20% | – | –
2 | O=C(NC(=O)c1c(F)cccc1F)Nc1cc(Cl)c(S(=O)(=O)C(F)(F)C(F)Cl)cc1Cl (stereo unspecified) | 95% | – | – | 100% | 100% | 100%
3 | O=C(NC(=O)c1c(F)cccc1F)Nc1ccc(S(=O)(=O)C(F)(F)C(F)F)cc1Cl | 100% | – | – | 100% | 95% | 100%
4 | O=C(NC(=O)c1c(F)cccc1F)Nc1ccc(S(=O)(=O)C(F)(F)C(F)Br)cc1Br (stereo unspecified) | 95% | – | – | 100% | 20% | 85%
5 | Cc1cc([S+]([O-])C(F)(F)C(F)Cl)ccc1NC(=O)NC(=O)c1c(F)cccc1F (stereo unspecified) | 100% | – | – | 100% | 100% | 100%
6 | O=C(NC(=O)c1c(F)cccc1F)Nc1ccc(SC(F)(F)C(F)Cl)cc1Cl (stereo unspecified) | 100% | – | – | 100% | 100% | 100%
7 | Cc1cc(SC(F)(F)C(F)Cl)c(C)cc1NC(=O)NC(=O)c1c(F)cccc1F (stereo unspecified) | 100% | – | – | 100% | 100% | 95%
8 | Cc1cc(S(=O)(=O)C(F)(F)C(F)F)ccc1NC(=O)NC(=O)c1c(F)cccc1F | 100% | – | – | 100% | 100% | 100%
9 | O=C(NC(=O)c1c(F)cccc1F)Nc1ccc(S(=O)(=O)C(F)(F)C(F)F)cc1Br | 85% | – | – | 100% | 65% | 40%
10 | O=C(NC(=O)c1c(F)cccc1F)Nc1cc(Cl)c([S+]([O-])C(F)(F)C(F)F)cc1Cl (stereo unspecified) | 100% | – | – | 100% | 100% | 75%
11 | O=C(NC(=O)c1c(F)cccc1F)Nc1ccc(SC(F)(F)C(F)F)c(Cl)c1 | 100% | – | 65% | 100% | 100% | –
12 | O=C(NC(=O)c1c(F)cccc1F)Nc1ccc(SC(F)(F)C(F)F)cc1Br | 100% | – | – | 100% | 100% | 100%
13 | O=C(NC(=O)c1c(F)cccc1F)Nc1ccc(S(=O)(=O)C(F)(F)C(F)F)cc1F | 100% | – | – | 100% | 100% | 100%
14 | Cc1cc(SC(F)(F)C(F)F)ccc1NC(=O)NC(=O)c1c(F)cccc1F | 100% | – | – | 95% | 100% | 100%
15 | O=C(NC(=O)c1c(F)cccc1F)Nc1ccc(SC(F)(F)C(F)F)cc1F | 100% | – | – | 100% | 100% | 80%
16 | O=C(NC(=O)c1c(F)cccc1F)Nc1ccc(S(=O)(=O)C(F)(F)C(F)F)c(Cl)c1Cl | 100% | – | – | 100% | 95% | 100%
17 | O=C(NC(=O)c1c(F)cccc1F)Nc1cc(Cl)c([S+]([O-])C(F)(F)C(F)Cl)cc1Cl (stereo unspecified) | 100% | – | – | 100% | 100% | 100%
18 | O=C(NC(=O)c1c(F)cccc1F)Nc1ccc(SC(F)(F)C(F)F)cc1 | 20% | – | – | 55% | 100% | 5%
19 | Cc1cc(S(=O)(=O)C(F)(F)C(F)F)c(C)cc1NC(=O)NC(=O)c1c(F)cccc1F | 100% | – | – | 100% | 100% | 95%

— ChEMBL document CHEMBL3045262, “Synthesis and Insecticidal Activity of Novel 1-Benzoyl-3-phenylurea Derivatives with Polyfluoroethylsulfenyl, -sulfonyl, and-sulfinyl Substituents” (1992)
